Laboratory results as given in BindingDB's records for PubMed 2894455 (University of Missouri, 1988).
pKi: −log10 of the molar value. Where “and” joins values, the source holds several entries; their conditions need not be identical. Equal entries are not always repeated.

Target: T1, Alpha-2B adrenergic receptor (Didelphis virginiana, UniProt O77715)
T1 sequence (O77715 whole entry): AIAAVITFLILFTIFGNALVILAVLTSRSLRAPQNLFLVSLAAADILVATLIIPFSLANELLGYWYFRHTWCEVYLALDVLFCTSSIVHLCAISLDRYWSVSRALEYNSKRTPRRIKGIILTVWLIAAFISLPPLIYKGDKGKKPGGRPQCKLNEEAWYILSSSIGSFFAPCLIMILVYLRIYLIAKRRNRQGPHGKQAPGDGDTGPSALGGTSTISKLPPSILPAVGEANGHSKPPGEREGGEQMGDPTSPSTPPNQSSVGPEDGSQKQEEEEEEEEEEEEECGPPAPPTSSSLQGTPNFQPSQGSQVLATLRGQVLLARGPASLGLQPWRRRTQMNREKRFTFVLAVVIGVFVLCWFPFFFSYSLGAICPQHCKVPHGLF

| Compound | pKi |
| --- | --- |
| Brc1c(NC2=NCCN2)ccc2nccnc12 [UK 14,304] | 7.66 |
| NCC(O)c1ccc(O)c(O)c1 (stereo not drawn) [Noradrenaline,(+)] | 6.91 |
| O=C(c1ccc(F)cc1)C1CCN(CCn2c(=O)[nH]c3ccccc3c2=O)CC1 [3-(2-{4-[(4-fluorophenyl)carbonyl]piperidin-1-yl}ethyl)-1,2,3,4-tetrahydroquinazoline-2,4-dione] | 6.84 |
| COc1cc2nc(N3CCN(C(=O)c4ccco4)CC3)nc(N)c2cc1OC [[3H]-Minipress] | 8.13 and 8.12 |

Further lines, results first:

| pKi | Compound |
| --- | --- |
| 7.85 | Clc1cccc(Cl)c1N=C1NCCN1 [2-(2,6-dichloroanilino)-2-imidazoline] |
| 8.25 | Cc1ccc(N(CC2=NCCN2)c2cccc(O)c2)cc1 [SMR000059054] |
| 7.51 | CNCC(O)c1ccc(O)c(O)c1 (centres undefined) [EPINEPHRINE] |
| 8.00 | Cc1cc(C(C)(C)C)c(O)c(C)c1CC1=NCCN1 [SMR000059324] |
| 9.57 | COc1cccc(OC)c1OCCNCC1Oc2ccccc2OC1c1ccccc1 (centres undefined) [NSC_185453] |
